32 compounds from patent publication US20250145633A1, “SUBSTITUTED FURANOPYRIMIDINE COMPOUNDS AS PDE1 INHIBITORS” (Dart NeuroScience, LLC, priority 2017, published 2025) can be followed below.

The first assay concerns the target human PDE1B enzyme (Homo sapiens (Human), UniProt Q01064). The assay can be described thus: IMAP TR-FRET PDE1B enzymatic assay. The class given is biochemical. To be noted: negative log of half-maximal molar inhibitory concentration; 200 nM FAM-cAMP; values given as bins. Put shortly: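 Full-length GST-tagged human PDE1B (250 pg/well) in IMAP BSA buffer with 10 U/ml calmodulin and 2.5 mM CaCl2; compound pre-incubated 5 min at room temperature, then 200 nM (final) FAM-cAMP for 30 min. IMAP binding reagent/Tb added, 1 h; TR-FRET 520/490 ratio read. IC50 from sigmoidal dose-response fit.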
On the technique in general: TR-FRET usually uses a lanthanide donor and a delayed reading to cut background.
As to `Cc1oc2ncnc(NC3(C)CC3)c2c1C(=O)N1CCC(c2ccc(C(N)=O)cc2)CC1` [Example 382, 4-(1-{6-Methyl-4-[(1-methylcyclopropyl)amino]furo[2,3-d]pyrimidine-5-carbonyl}piperidin-4-yl)benzamide], the “PDE1b (pIC50)” value is recorded as more than 8.

As to `Cc1ccc(C2CCN(C(=O)c3c(C)oc4ncnc(NC5(C)CC5)c34)CC2)cc1` [Example 384, 6-Methyl-N-(1-methylcyclopropyl)-5-[4-(4-methylphenyl)piperidine-1-carbonyl]furo[2,3-d]pyrimidin-4-amine], the “PDE1b (pIC50)” value is recorded as more than 8.

On to `Cc1oc2ncnc(NC3(C)CC3)c2c1C(=O)N1CCC(c2ccc(C#N)cc2)CC1` [Example 385, 4-(1-{6-Methyl-4-[(1-methylcyclopropyl)amino]furo[2,3-d]pyrimidine-5-carbonyl}piperidin-4-yl)benzonitrile], for which the “PDE1b (pIC50)” value is more than 8.

As for `Cc1oc2ncnc(NC3(C)CC3)c2c1C(=O)N1CCC2(C=Cc3ccccc32)CC1` [Example 387, 6-Methyl-N-(1-methylcyclopropyl)-5-({spiro[indene-1,4′-piperidine]-1′-yl}carbonyl)furo[2,3-d]pyrimidin-4-amine], the “PDE1b (pIC50)” value is more than 8.

For `Cc1oc2ncnc(NC3(C)CC3)c2c1C(=O)N1CCC2(CC1)SCc1ccccc12` [Example 388, 6-Methyl-N-(1-methylcyclopropyl)-5-(f{3H-spiro[2-benzothiophene-1,4′-piperidine]-1′-yl}carbonyl)furo[2,3-d]pyrimidin-4-amine], the “PDE1b (pIC50)” value is more than 8.

As for `Cc1oc2ncnc(NC3(C)CC3)c2c1C(=O)N1CCC(c2cccc(F)c2)C1` (centres unmarked) [Example 389, 5-[3-(3-Fluorophenyl)pyrrolidine-1-carbonyl]-6-methyl-N-(1-methylcyclopropyl)furo[2,3-d]pyrimidin-4-amine], the “PDE1b (pIC50)” value is more than 8.

On to `Cc1ccnc(C2CCN(C(=O)c3c(C)oc4ncnc(NC5(C)CC5)c34)CC2)n1` [Example 390, 6-Methyl-N-(1-methylcyclopropyl)-5-[4-(4-methylpyrimidin-2-yl)piperidine-1-carbonyl]furo[2,3-d]pyrimidin-4-amine], for which the “PDE1b (pIC50)” value is listed as more than 8.

For `Cc1cccc(C2CCN(C(=O)c3c(C)oc4ncnc(NC5(C)CC5)c34)C2)c1` (centres unmarked) [Example 395, 6-Methyl-N-(1-methylcyclopropyl)-5-[3-(3-methylphenyl)pyrrolidine-1-carbonyl]furo[2,3-d]pyrimidin-4-amine], the “PDE1b (pIC50)” value was more than 8.

As to `Cc1oc2ncnc(NC3(C)CC3)c2c1C(=O)N1CCC(c2cccc(C(F)(F)F)c2)C1` (centres unmarked) [Example 396, 6-Methyl-N-(1-methylcyclopropyl)-5-{3-[3-(trifluoromethyl)phenyl]pyrrolidine-1-carbonyl}furo[2,3-d]pyrimidin-4-amine], the “PDE1b (pIC50)” value is listed as more than 8.

Turning to `Cc1cc(C)cc(C2CCN(C(=O)c3c(C)oc4ncnc(NC5(C)CC5)c34)C2)c1` (centres unmarked) [Example 397, 5-[3-(3,5-Dimethylphenyl)pyrrolidine-1-carbonyl]-6-methyl-N-(1-methylcyclopropyl)furo[2,3-d]pyrimidin-4-amine], the “PDE1b (pIC50)” value is recorded as more than 8.

Take `Cc1oc2ncnc(NC3(C)CC3)c2c1C(=O)N1CCC(Oc2cccc(F)c2)C1` (centres unmarked) [Example 398, 5-[3-(3-Fluorophenoxy)pyrrolidine-1-carbonyl]-6-methyl-N-(1-methylcyclopropyl)furo[2,3-d]pyrimidin-4-amine]: the “PDE1b (pIC50)” value is reported as more than 8.

Still in this assay, the particulars now being: negative log of half-maximal molar inhibitory concentration; 200 nM FAM-cAMP; values given as bins; read-out: PDE1b (pIC50) (converted).
On to `Cc1oc2ncnc(NC3(C)CC3)c2c1C(=O)N1CCC2(C1)OCc1ccccc12` (centres unmarked) [Example 380, 6-Methyl-N-(1-methylcyclopropyl)-5-(f{3H-spiro[2-benzofuran-1,3′-pyrrolidine]-1′-yl}carbonyl)furo[2,3-d]pyrimidin-4-amine], for which the IC50 is 0.01 to 0.1 µM.

For `Cc1oc2ncnc(NC3(C)CC3)c2c1C(=O)N1CCN(c2cncnc2)CC1` [Example 381, 6-Methyl-N-(1-methylcyclopropyl)-5-[4-(pyrimidin-5-yl)piperazine-1-carbonyl]furo[2,3-d]pyrimidin-4-amine], the IC50 is 0.01 to 0.1 µM.

As for `Cc1ccc(C2CCN(C(=O)c3c(C)oc4ncnc(NC5(C)CC5)c34)CC2)cn1` [Example 383, 6-Methyl-N-(1-methylcyclopropyl)-5-[4-(6-methylpyridin-3-yl)piperidine-1-carbonyl]furo[2,3-d]pyrimidin-4-amine], the IC50 is 0.01 to 0.1 µM.

As to `Cc1oc2ncnc(NC3(C)CC3)c2c1C(=O)N1CCC2(CC1)OC(=O)Nc1ccc(F)cc12` [Example 386, 6-Fluoro-1′-{6-methyl-4-[(1-methylcyclopropyl)amino]furo[2,3-d]pyrimidine-5-carbonyl}-1,2-dihydrospiro[3,1-benzoxazine-4,4′-piperidine]-2-one], the IC50 is 0.01 to 0.1 µM.

Take `Cc1cnc(C2CCN(C(=O)c3c(C)oc4ncnc(NC5(C)CC5)c34)CC2)nc1C` [Example 391, 5-[4-(4,5-Dimethylpyrimidin-2-yl)piperidine-1-carbonyl]-6-methyl-N-(1-methylcyclopropyl)furo[2,3-d]pyrimidin-4-amine]: the IC50 is 0.01 to 0.1 µM.

As to `Cc1oc2ncnc(NC3(C)CC3)c2c1C(=O)N1CCC2(C1)C(=O)Nc1ccccc12` (centres unmarked) [Example 392, 1′-{6-Methyl-4-[(1-methylcyclopropyl)amino]furo[2,3-d]pyrimidine-5-carbonyl}-1,2-dihydrospiro[indole-3,3′-pyrrolidine]-2-one], the IC50 was 0.01 to 0.1 µM.

Consider `Cc1cnc(C2CCN(C(=O)c3c(C)oc4ncnc(NC5(C)CC5)c34)CC2)cn1` [Example 393, 6-Methyl-N-(1-methylcyclopropyl)-5-[4-(5-methylpyrazin-2-yl)piperidine-1-carbonyl]furo[2,3-d]pyrimidin-4-amine], for which the IC50 is 0.01 to 0.1 µM.

For `COc1ncc(C2CCN(C(=O)c3c(C)oc4ncnc(NC5(C)CC5)c34)CC2)cn1` [Example 394, 5-[4-(2-Methoxypyrimidin-5-yl)piperidine-1-carbonyl]-6-methyl-N-(1-methylcyclopropyl)furo[2,3-d]pyrimidin-4-amine], the IC50 was 0.01 to 0.1 µM.

As for `Cc1oc2ncnc(NC3(C)CC3)c2c1C(=O)N1CCC(Oc2ccc(F)cc2)C1` (centres unmarked) [Example 399, 5-[3-(4-Fluorophenoxy)pyrrolidine-1-carbonyl]-6-methyl-N-(1-methylcyclopropyl)furo[2,3-d]pyrimidin-4-amine], the IC50 is 0.01 to 0.1 µM.

For `Cc1oc2ncnc(NC3(C)CC3)c2c1C(=O)NC(C)C1CC1` (centres unmarked) [Example 400, N-(1-Cyclopropylethyl)-6-methyl-4-[(1-methylcyclopropyl)amino]furo[2,3-d]pyrimidine-5-carboxamide], the IC50 is 0.01 to 0.1 µM.

For `CCC(NC(=O)c1c(C)oc2ncnc(NC3(C)CC3)c12)C1CC1` (centres unmarked) [Example 401, N-(1-Cyclopropylpropyl)-6-methyl-4-[(1-methylcyclopropyl)amino]furo[2,3-d]pyrimidine-5-carboxamide], the IC50 is 0.01 to 0.1 µM.

For `Cc1oc2ncnc(NC3(C)CC3)c2c1C(=O)NC(C)C1(C)CC1` (centres unmarked) [Example 402, 6-Methyl-4-[(1-methylcyclopropyl)amino]-N-[1-(1-methylcyclopropyl)ethyl]furo[2,3-d]pyrimidine-5-carboxamide], the IC50 is 0.01 to 0.1 µM.

As for `Cc1oc2ncnc(NC3(C)CC3)c2c1C(=O)N1CC2CC(C1)c1ccccc12` [Example 403, 5-{10-Azatricyclo[6.3.1.0^2,7]dodeca-2,4,6-triene-10-carbonyl}-6-methyl-N-(1-methylcyclopropyl)furo[2,3-d]pyrimidin-4-amine], the IC50 is 0.1 to 1 µM.

For `Cc1oc2ncnc(NC3(C)CC3)c2c1C(=O)n1cc(C(C)C)cn1` [Example 404, 6-Methyl-N-(1-methylcyclopropyl)-5-[4-(propan-2-yl)-1H-pyrazole-1-carbonyl]furo[2,3-d]pyrimidin-4-amine], the IC50 was 0.01 to 0.1 µM.

Consider `Cc1oc2ncnc(NC3(C)CC3)c2c1C(=O)n1cc(-c2ccccc2)cn1` [Example 405, 6-Methyl-N-(1-methylcyclopropyl)-5-(4-phenyl-1H-pyrazole-1-carbonyl)furo[2,3-d]pyrimidin-4-amine], for which the IC50 is 0.1 to 1 µM.

For `COc1ccc(-c2cnn(C(=O)c3c(C)oc4ncnc(NC5(C)CC5)c34)c2)cc1` [Example 406, 5-[4-(4-Methoxyphenyl)-1H-pyrazole-1-carbonyl]-6-methyl-N-(1-methylcyclopropyl)furo[2,3-d]pyrimidin-4-amine], the IC50 was 0.1 to 1 µM.

`Cc1oc2ncnc(NC3(C)CC3)c2c1C(=O)n1cc(-c2ccc(F)cc2)cn1` [Example 407, 5-[4-(4-Fluorophenyl)-1H-pyrazole-1-carbonyl]-6-methyl-N-(1-methylcyclopropyl)furo[2,3-d]pyrimidin-4-amine]: the IC50 is 0.01 to 0.1 µM.

As for `Cc1cnn(C(=O)c2c(C)oc3ncnc(NC4(C)CC4)c23)c1` [Example 408, 6-Methyl-5-(4-methyl-1H-pyrazole-1-carbonyl)-N-(1-methylcyclopropyl)furo[2,3-d]pyrimidin-4-amine], the IC50 is 0.1 to 1 µM.

On to `Cc1nn(C(=O)c2c(C)oc3ncnc(NC4(C)CC4)c23)c(C)c1C` [Example 409, 6-Methyl-N-(1-methylcyclopropyl)-5-(trimethyl-1H-pyrazole-1-carbonyl)furo[2,3-d]pyrimidin-4-amine], for which the IC50 was 0.01 to 0.1 µM.

Regarding `Cc1oc2ncnc(NC3(C)CC3)c2c1C(=O)n1cccn1` [Example 410, 6-Methyl-N-(1-methylcyclopropyl)-5-(1H-pyrazole-1-carbonyl)furo[2,3-d]pyrimidin-4-amine], the IC50 was 0.1 to 1 µM.

On to `Cc1cc(C)n(C(=O)c2c(C)oc3ncnc(NC4(C)CC4)c23)n1` [Example 411, 5-(3,5-Dimethyl-1H-pyrazole-1-carbonyl)-6-methyl-N-(1-methylcyclopropyl)furo[2,3-d]pyrimidin-4-amine], for which the IC50 is 0.01 to 0.1 µM.
